Values after ≈ are worked out from the molar mass of the structure shown. Read-outs that look alike come from different tables or passages of the source.
Experiments:
Escherichia coli = assay: MIC, micro-dilution broth method (CLSI); format: cell-based; settings: Escherichia coli
Klebsiella pneumoniae = assay: MIC, micro-dilution broth method (CLSI); format: cell-based; settings: Klebsiella pneumoniae, read-out: MIC

Cc1cc(-c2c[nH]nc2-c2cccc(OCc3cccc(C#N)c3)c2)cc(C)n1 [Compound 12, 3-((3-(4-(2,6-dimethylpyridin-4-yl)-1H-pyrazol-3-yl)phenoxy)methyl)benzonitrile]
MIC (Escherichia coli; ATCC25922, E. coli ATCC 25922, read-out: MIC): 1 µg/mL (≈ 2.63 µM) | MIC (Escherichia coli; ATCCBAA2340, E. coli ATCC BAA-2340, read-out: MIC): 2 µg/mL (≈ 5.26 µM) | MIC (Escherichia coli; ATCCBAA2469, E. coli ATCC BAA-2469, read-out: MIC): 1 µg/mL (≈ 2.63 µM) | MIC (Escherichia coli; ATCCBAA2471, E. coli ATCC BAA-2471, read-out: MIC): 4 µg/mL (≈ 10.5 µM) | MIC (Escherichia coli; E. coli AR0048, read-out: MIC): 4 µg/mL (≈ 10.5 µM) | MIC (Escherichia coli; E. coli AR0055, read-out: MIC): 2 µg/mL (≈ 5.26 µM) | MIC (Escherichia coli; E. coli AR0058, read-out: MIC): 2 µg/mL (≈ 5.26 µM) | MIC (Escherichia coli; E. coli AR0061, read-out: MIC): 8 µg/mL (≈ 21 µM) | MIC (Escherichia coli; E. coli AR0067, read-out: MIC): 2 µg/mL (≈ 5.26 µM) | MIC (Escherichia coli; E. coli AR0069, read-out: MIC): 2 µg/mL (≈ 5.26 µM) | MIC (Escherichia coli; E. coli AR0077, read-out: MIC): 1 µg/mL (≈ 2.63 µM) | MIC (Escherichia coli; E. coli AR0081, read-out: MIC): 2 µg/mL (≈ 5.26 µM) | MIC (Escherichia coli; E. coli AR0084, read-out: MIC): 2 µg/mL (≈ 5.26 µM) | MIC (Escherichia coli; E. coli AR0085, read-out: MIC): 1 µg/mL (≈ 2.63 µM) | MIC (Escherichia coli; E. coli AR0086, read-out: MIC): 0.5 µg/mL (≈ 1.31 µM) | MIC (Escherichia coli; E. coli AR0089, read-out: MIC): 2 µg/mL (≈ 5.26 µM) | MIC (Escherichia coli; E. coli AR0104, read-out: MIC): 1 µg/mL (≈ 2.63 µM) | MIC (Escherichia coli; E. coli AR0114, read-out: MIC): 2 µg/mL (≈ 5.26 µM) | MIC (Escherichia coli; E. coli AR0118, read-out: MIC): 1 µg/mL (≈ 2.63 µM) | MIC (Escherichia coli; E. coli AR0119, read-out: MIC): 4 µg/mL (≈ 10.5 µM) | MIC (Escherichia coli; E. coli AR0128, read-out: MIC): 1 µg/mL (≈ 2.63 µM) | MIC (Escherichia coli; E. coli AR0137, read-out: MIC): 2 µg/mL (≈ 5.26 µM) | MIC (Escherichia coli; E. coli AR0149, read-out: MIC): 2 µg/mL (≈ 5.26 µM) | MIC (Escherichia coli; E. coli AR0150, read-out: MIC): 1 µg/mL (≈ 2.63 µM) | MIC (Escherichia coli; E. coli AR0151, read-out: MIC): 2 µg/mL (≈ 5.26 µM) | MIC (Escherichia coli; E. coli AR0162, read-out: MIC): 4 µg/mL (≈ 10.5 µM) | MIC (Escherichia coli; E. coli AR0346, read-out: MIC): 2 µg/mL (≈ 5.26 µM) | MIC (Escherichia coli; E. coli AR0348, read-out: MIC): 2 µg/mL (≈ 5.26 µM) | MIC (Escherichia coli; E. coli AR0350, read-out: MIC): 1 µg/mL (≈ 2.63 µM) | MIC (Escherichia coli; E. coli AR0493, read-out: MIC): 4 µg/mL (≈ 10.5 µM) | MIC (Escherichia coli; E. coli AR0494, read-out: MIC): 4 µg/mL (≈ 10.5 µM) | MIC (Escherichia coli; E. coli AR0495, read-out: MIC): 2 µg/mL (≈ 5.26 µM) | MIC (Escherichia coli; E. coli AR0541, read-out: MIC): 1 µg/mL (≈ 2.63 µM) | MIC (Escherichia coli; E. coli AR0543, read-out: MIC): 4 µg/mL (≈ 10.5 µM) | MIC (Escherichia coli; E. coli AR0546, read-out: MIC): 0.5 µg/mL (≈ 1.31 µM) | MIC (Escherichia coli; E. coli AR0551, read-out: MIC): 2 µg/mL (≈ 5.26 µM) | MIC (Escherichia coli; E. coli AR0559, read-out: MIC): 2 µg/mL (≈ 5.26 µM) | MIC (Escherichia coli; E. coli AR-0349 (colistin-resistant clinical isolate), read-out: MIC): 1 µg/mL (≈ 2.63 µM) | MIC (Escherichia coli; E. coli AR-0549, read-out: MIC): 2 µg/mL (≈ 5.26 µM) | MIC (Escherichia coli; E. coli ELZ 4004, read-out: MIC): 2 µg/mL (≈ 5.26 µM) | MIC (Escherichia coli; E. coli ELZ 4017, read-out: MIC): 2 µg/mL (≈ 5.26 µM) | MIC (Escherichia coli; E. coli ELZ 4042, read-out: MIC): 4 µg/mL (≈ 10.5 µM) | MIC (Escherichia coli; E. coli ELZ 4072, read-out: MIC): 2 µg/mL (≈ 5.26 µM) | MIC (Escherichia coli; E. coli ELZ 4081, read-out: MIC): 2 µg/mL (≈ 5.26 µM) | MIC (Escherichia coli; E. coli ELZ 4139, read-out: MIC): 8 µg/mL (≈ 21 µM) | MIC (Escherichia coli; E. coli ELZ 4239, read-out: MIC): 4 µg/mL (≈ 10.5 µM) | MIC (Escherichia coli; E. coli ELZ 4277, read-out: MIC): 2 µg/mL (≈ 5.26 µM) | MIC (Escherichia coli; E. coli ELZ 4346, read-out: MIC): 2 µg/mL (≈ 5.26 µM) | MIC (Escherichia coli; E. coli ΔrfaC JW3596 (permeability mutant)): 0.06 µg/mL (≈ 0.158 µM) | MIC (Escherichia coli; E. coli ΔtolC JW5503 (efflux-deficient)): 0.008 µg/mL (≈ 0.021 µM) | MIC (Klebsiella pneumoniae; ATCC27736, K. pneumoniae ATCC 27736): 1 µg/mL (≈ 2.63 µM) | MIC (Klebsiella pneumoniae; ATCCBAA1705, K. pneumoniae ATCC BAA-1705): 4 µg/mL (≈ 10.5 µM) | MIC (Klebsiella pneumoniae; ATCCBAA2146, K. pneumoniae ATCC BAA-2146): 8 µg/mL (≈ 21 µM) | MIC (Klebsiella pneumoniae; ATCCBAA2342, K. pneumoniae ATCC BAA-2342): 4 µg/mL (≈ 10.5 µM) | MIC (Klebsiella pneumoniae; ATCCBAA2470, K. pneumoniae ATCC BAA-2470): 1 µg/mL (≈ 2.63 µM) | MIC (Klebsiella pneumoniae; ATCCBAA2472, K. pneumoniae ATCC BAA-2472): 4 µg/mL (≈ 10.5 µM) | MIC (Klebsiella pneumoniae; ATCCBAA2473, K. pneumoniae ATCC BAA-2473): 4 µg/mL (≈ 10.5 µM) | MIC (Klebsiella pneumoniae; K. pneumoniae AR0034): 0.5 µg/mL (≈ 1.31 µM) | MIC (Klebsiella pneumoniae; K. pneumoniae AR0039): 0.5 µg/mL (≈ 1.31 µM)

Source: patent US20250051300A1, “GRAM-NEGATIVE SPECIFIC ANTIBIOTICS SPARING EFFECT ON GUT MICROBIOME” (THE BOARD OF TRUSTEES OF THE UNIVERSITY OF ILLINOIS, priority 2021, published 2025)
